# Results from US7410972B2, “Compounds” (AstraZeneca AB, priority 2001, dated 2008).
# Target: T1, human recombinant CCR4 receptor (Homo sapiens, UniProt P51679)
# T1 construct: Brussels, Belgium; host or cells: CHO-K1
# T1 sequence (P51679 1-360): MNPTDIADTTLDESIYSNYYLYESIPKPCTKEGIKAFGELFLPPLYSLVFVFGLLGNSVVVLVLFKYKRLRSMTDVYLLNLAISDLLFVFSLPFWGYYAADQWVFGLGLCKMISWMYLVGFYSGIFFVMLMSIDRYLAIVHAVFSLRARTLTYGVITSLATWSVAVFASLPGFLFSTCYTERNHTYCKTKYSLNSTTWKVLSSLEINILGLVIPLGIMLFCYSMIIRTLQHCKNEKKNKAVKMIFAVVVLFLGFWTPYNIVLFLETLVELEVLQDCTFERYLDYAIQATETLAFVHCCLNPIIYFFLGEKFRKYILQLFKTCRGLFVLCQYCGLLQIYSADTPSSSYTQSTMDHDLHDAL
# Assay: FMAT Whole Cell Binding Assay (FB-MDC binding to CHO-K1 cells expressing CCR4)
# Settings: CHO-K1 cells stably expressing human recombinant CCR4; inhibition of FB-MDC fluorescent probe binding, two hours incubation at room temperature
# Experimental: FMAT Whole Cell Binding Assay
# CHO-K1 cells stably expressing the human recombinant CCR4 receptor (Euroscreen; Brussels, Belgium) were cultured in NUT.MIX.F—12(HAM) medium with glutamax-1, containing 10% (v/v) foetal bovine serum and 400 μg ml^−1 geneticin.
# Cells were harvested at approximately 70% confluence by treatment with a cell dissociation buffer, and seeded at 5×10^3 cells/100 μl culture medium into wells of a black Costar clear-bottomed 96-well microtitre plates. Plates were incubated overnight at 37° C. in 5% CO2 and used the following day.
# Before use, the cell plates were washed twice with 100 μl Hanks balanced salt solution (HBSS). To each well was then added 65 μl of HBSS, 10 μL of 10% DMSO in HBSS±test compound and then 25 μL of 2.8 nM FB-MDC (Applied Biosystems). This fluorescent probe was prepared from a 10 μM stock in 0.08% (v/v) TFA/16% (v/v) acetonitrile, diluted into HBSS.
# After two hours incubation in the dark at room temperature, the plates were analysed in an FMAT8100 reader (Applied Biosystems) to measure fluorescence that was associated with binding of FB-MDC to the cells. Compound activity was determined as an pIC50 [log(concentration of compound that results in 50% inhibition)], comparing fluorescence in control and background wells.
# • Fluorescence (ctrl)=1200 • Fluorescence (bkg)=0
row,IC50 [nM],SMILES
1,39.8,"COc1nc(Br)cnc1NS(=O)(=O)c1ccc(Cl)s1 [Example 1, N-(5-Bromo-3-methoxy-2-pyrazinyl)-5-chloro-2-thiophenesulphonamide]"
2,631,"COCCOc1nc(Br)cnc1NS(=O)(=O)c1ccc(Cl)s1 [Example 16, 5-Chloro-N-[5-bromo-3-(2-methoxyethoxy)-2-pyrazinyl]-2-thiophenesulphonamide]"
3,10,"Cc1cnc(NS(=O)(=O)c2ccc(Cl)s2)c(OCc2cccnc2)n1 [Example 23, 5-Chloro-N-[5-methyl-3-(3-pyridinylmethoxy)-2-pyrazinyl]-2-thiophenesulphonamide]"

# Tested on: not given
# Assay: not given
# Settings: not given
row,melting point [°C],SMILES
1,179 to 181,"Cc1cnc(NS(=O)(=O)c2ccc(Cl)s2)c(OCc2cccnn2)n1 [Example 24, 5-Chloro-N-[5-methyl-3-(3-pyridazinylmethoxy)-2-pyrazinyl]-2-thiophenesulphonamide]"
2,130 to 133,"O=S(=O)(Nc1nc(Cl)cnc1OCc1ccco1)c1ccc(Cl)s1 [Example 20, 5-Chloro-N-[6 chloro-3-(2-furanylmethoxy)-2-pyrazinyl]-2-thiophenesulphonamide]"
3,141 to 142,"Cc1cc(COc2ncc(Cl)nc2NS(=O)(=O)c2ccc(Cl)s2)no1 [Example 21, 5-Chloro-N-[6-chloro-3-(5-methyl-3-isoxazolylmethoxy)2-pyrazinyl]-2-thiophenesulphonamide]"
4,95 to 96,"COc1nc(C)c(C)nc1NS(=O)(=O)c1ccc(Cl)s1 [Example 27, 5-Chloro-N-(5,6-dimethyl-3-methoxy-2-pyrazinyl)-2-thiophenesulphonamide]"
5,192 to 194,"COc1nc(SCCN)cnc1NS(=O)(=O)c1ccc(Cl)s1 [Example 30, N-[5-{(2-Aminoethyl)sulpanyl}-3-methoxy-2-pyrazinyl]-5-chloro-2-thiophenesulphonamide]"
6,171 to 172,O=S(=O)(Nc1nc(Cl)cnc1OCc1ccccn1)c1ccc(Cl)s1 [Example 22]
7,109 to 110,"O=S(=O)(Nc1nccnc1OCc1ccccn1)c1ccc(Cl)s1 [Example 25, 5-Chloro-N-[3-(2-pyridinylmethoxy)-2-pyrazinyl]-2-thiophenesulphonamide]"
8,204 to 205,"Cc1cnc(NS(=O)(=O)c2ccc(Cl)s2)c(OCc2cccnc2)n1 [Example 23, 5-Chloro-N-[5-methyl-3-(3-pyridinylmethoxy)-2-pyrazinyl]-2-thiophenesulphonamide]"
9,218 to 219,"COc1nc(C#N)cnc1NS(=O)(=O)c1ccc(Cl)s1 [Example 31, 5-Chloro-N-[5-cyano-3-methoxy-2-pyrazinyl]-2-thiophenesulphonamide]"
10,119 to 120,"COc1nccnc1NS(=O)(=O)c1ccc(Cl)s1 [Example 26, 5-Chloro-N-(3-methoxy-2-pyrazinyl)-2-thiophenesulphonamide]"
